Assay results taken from PubChem BioAssay AID248 (DTP/NCI, 2004).
Values joined by “and” are separate entries in the source; they are usually repeats but may differ in a detail not shown here. Identical values can stand only once. Toxic doses and inconclusive results are not listed. Cut-off read from the data, not from the text of the source: active = T/C of 150% or more; inactive = T/C below 125%.

System: L1210 leukemia ip in BDF1 mice, survival T/C
Assay: NCI In Vivo Anticancer Drug Screen. Data for tumor model L1210 Leukemia (intraperitoneal) in B6D2F1 (BDF1) mice
Details: endpoint: mean survival time, higher = longer survival
Outline: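 Tumor cells were implanted, animals were treated, and survival was followed. The result divides the treated measurement by the vehicle-control measurement.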

[1] = dose: 100.0 mg/kg/injection, schedule: Q04DX003 (ip), vehicle: saline
[2] = dose: 200.0 mg/kg/injection, schedule: Q04DX003 (ip), vehicle: saline
[3] = dose: 400.0 mg/kg/injection, schedule: Q04DX003 (ip), vehicle: saline
[4] = dose: 100.0 mg/kg/injection, schedule: Q04DX002 (ip), vehicle: saline
[5] = dose: 200.0 mg/kg/injection, schedule: Q04DX002 (ip), vehicle: saline
[6] = dose: 400.0 mg/kg/injection, schedule: Q04DX002 (ip), vehicle: saline
[7] = dose: 100.0 mg/kg/injection, schedule: Q01DX001 (ip), vehicle: carboxymethylcellulose (CMC)
[8] = dose: 200.0 mg/kg/injection, schedule: Q01DX001 (ip), vehicle: carboxymethylcellulose (CMC)
[9] = dose: 400.0 mg/kg/injection, schedule: Q01DX001 (ip), vehicle: carboxymethylcellulose (CMC)
[10] = dose: 50.0 mg/kg/injection, schedule: Q01DX001 (ip), vehicle: carboxymethylcellulose (CMC)
[11] = dose: 100.0 mg/kg/injection, schedule: Q04DX002 (ip), vehicle: Klucel (hydroxypropylcellulose) (HPC)
[12] = dose: 200.0 mg/kg/injection, schedule: Q04DX002 (ip), vehicle: Klucel (hydroxypropylcellulose) (HPC)
[13] = dose: 400.0 mg/kg/injection, schedule: Q04DX002 (ip), vehicle: Klucel (hydroxypropylcellulose) (HPC)
[14] = dose: 100.0 mg/kg/injection, schedule: Q01DX009 (ip), vehicle: Klucel (hydroxypropylcellulose) (HPC)
[15] = dose: 100.0 mg/kg/injection, schedule: Q04DX003 (ip), vehicle: Klucel (hydroxypropylcellulose) (HPC)
[16] = dose: 200.0 mg/kg/injection, schedule: Q01DX009 (ip), vehicle: Klucel (hydroxypropylcellulose) (HPC)
[17] = dose: 200.0 mg/kg/injection, schedule: Q04DX003 (ip), vehicle: Klucel (hydroxypropylcellulose) (HPC)
[18] = dose: 400.0 mg/kg/injection, schedule: Q01DX009 (ip), vehicle: Klucel (hydroxypropylcellulose) (HPC)
[19] = dose: 400.0 mg/kg/injection, schedule: Q04DX003 (ip), vehicle: Klucel (hydroxypropylcellulose) (HPC)

Measured: T/C

CCOC(=O)C1(C(=O)OCC)C/C=C/CC(C(=O)OCC)(C(=O)OCC)C/C=C/C1
inactive: dose: 100.0 mg/kg/injection, schedule: Q01DX009 (ip), vehicle: saline 90 % of control | [1] 98 % of control | dose: 200.0 mg/kg/injection, schedule: Q01DX009 (ip), vehicle: saline 102 % of control | [2] 95 % of control | dose: 400.0 mg/kg/injection, schedule: Q01DX009 (ip), vehicle: saline 92 % of control | [3] 90 % of control

COc1ccc(/C=N\NC(=O)c2ccc(Cl)c(Cl)c2)cc1OC
inactive: dose: 50.0 mg/kg/injection, schedule: Q01DX009 (ip), vehicle: saline with Tween-80 117 % of control | dose: 100.0 mg/kg/injection, schedule: Q01DX009 (ip), vehicle: saline with Tween-80 93 % of control | dose: 200.0 mg/kg/injection, schedule: Q01DX009 (ip), vehicle: saline with Tween-80 90 % of control

O=C(CCCCl)N1CCCCC1
inactive: [4] 94 % of control | [5] 98 % of control | [6] 96 % of control

COc1ccnc2ccc(C)c([N+](=O)[O-])c12
inactive: dose: 100.0 mg/kg/injection, schedule: Q04DX003 (ip), vehicle: other 96 % of control | dose: 200.0 mg/kg/injection, schedule: Q04DX003 (ip), vehicle: other 90 % of control

O=C(Nc1c(Br)cc2c(c1Br)Cc1cc([N+](=O)[O-])ccc1-2)C(Cl)Cl
inactive: [7] 98 % of control | [8] 107 % of control | [9] 109 % of control

CC(=O)[C@H]1CC[C@H]2[C@@H]3CCC4=CC(=O)[C@H](C)C[C@]4(C)[C@@]3(F)C(=O)C[C@]12C
inactive: dose: 15.0 mg/kg/injection, schedule: Q01DX Z (sc), vehicle: steriod suspending solution 98 % of control | dose: 30.0 mg/kg/injection, schedule: Q01DX Z (sc), vehicle: steriod suspending solution 96 % of control | dose: 60.0 mg/kg/injection, schedule: Q01DX Z (sc), vehicle: steriod suspending solution 101 % of control and 113 % of control | dose: 100.0 mg/kg/injection, schedule: Q01DX009 (sc), vehicle: steriod suspending solution 116 % of control | dose: 100.0 mg/kg/injection, schedule: Q04DX003 (sc), vehicle: steriod suspending solution 98 % of control | dose: 120.0 mg/kg/injection, schedule: Q01DX Z (sc), vehicle: steriod suspending solution 105 % of control | dose: 200.0 mg/kg/injection, schedule: Q01DX009 (sc), vehicle: steriod suspending solution 110 % of control | dose: 200.0 mg/kg/injection, schedule: Q04DX003 (sc), vehicle: steriod suspending solution 98 % of control | dose: 240.0 mg/kg/injection, schedule: Q01DX Z (sc), vehicle: steriod suspending solution 103 % of control | dose: 400.0 mg/kg/injection, schedule: Q01DX009 (sc), vehicle: steriod suspending solution 111 % of control | dose: 400.0 mg/kg/injection, schedule: Q04DX003 (sc), vehicle: steriod suspending solution 98 % of control

Cc1cc(O)ccc1C#N
inactive: [4] 102 % of control | [5] 102 % of control | [6] 104 % of control

O=C1C(=O)c2cc(Br)cc([N+](=O)[O-])c2-c2ccc(Br)cc21
inactive: [10] 95 % of control | [7] 106 % of control | [8] 101 % of control | [9] 97 % of control

c1ccc2cc3nc4ccccc4nc3cc2c1
inactive: dose: 100.0 mg/kg/injection, schedule: Q01DX001 (ip), vehicle: acetone 92 % of control | [1] 108 % of control | dose: 200.0 mg/kg/injection, schedule: Q01DX001 (ip), vehicle: acetone 97 % of control | [2] 101 % of control | dose: 400.0 mg/kg/injection, schedule: Q01DX001 (ip), vehicle: acetone 86 % of control | [3] 111 % of control

CC(N=c1nc(N)ccn1C1OC(CO)C(O)C1O)C(=O)O (stereo not given)
inactive: dose: 200.0 mg/kg/injection, schedule: Q01DX005 (ip), vehicle: saline 120 % of control

O=C(CCCCNC(=O)C1CCCN1Sc1ccc([N+](=O)[O-])cc1[N+](=O)[O-])OCc1ccccc1 (stereo not given)
inactive: [11] 90 % of control | [12] 94 % of control | [13] 94 % of control

CC(C)OC(=S)SCC(=O)c1ccc([N+](=O)[O-])cc1
inactive: [11] 112 % of control | [12] 102 % of control | [13] 105 % of control

CCCCC(=O)c1ccc(F)cc1
inactive: [14] 96 % of control | [15] 105 % of control | [16] 98 % of control | [17] 93 % of control | [18] 98 % of control | [19] 100 % of control

CC[CH2][Pb]([CH2]CC)([CH2]CC)[O]C(=O)C(F)(F)F
inactive: dose: 12.5 mg/kg/injection, schedule: Q04DX002 (ip), vehicle: Klucel (hydroxypropylcellulose) (HPC) 107 % of control | dose: 25.0 mg/kg/injection, schedule: Q04DX002 (ip), vehicle: Klucel (hydroxypropylcellulose) (HPC) 95 % of control

COc1c2ccccc2nc2ccccc12
inactive: dose: 100.0 mg/kg/injection, schedule: Q04DX003 (ip), vehicle: saline with Tween-80 93 % of control | dose: 200.0 mg/kg/injection, schedule: Q04DX003 (ip), vehicle: saline with Tween-80 91 % of control | dose: 400.0 mg/kg/injection, schedule: Q04DX003 (ip), vehicle: saline with Tween-80 95 % of control

CCOC(=O)/C(C(=S)NC(=O)c1ccc(Br)cc1)=C(/C)N
inactive: dose: 100.0 mg/kg/injection, schedule: Q04DX003 (ip), vehicle: carboxymethylcellulose (CMC) 95 % of control | dose: 200.0 mg/kg/injection, schedule: Q04DX003 (ip), vehicle: carboxymethylcellulose (CMC) 90 % of control | dose: 400.0 mg/kg/injection, schedule: Q04DX003 (ip), vehicle: carboxymethylcellulose (CMC) 98 % of control

Cc1cc(C(=O)O)c(C)n1-c1cccc(C(=O)O)c1
inactive: dose: 50.0 mg/kg/injection, schedule: Q01DX009 (ip), vehicle: Klucel (hydroxypropylcellulose) (HPC) 102 % of control | dose: 100.0 mg/kg/injection, schedule: Q01DX001 (ip), vehicle: Klucel (hydroxypropylcellulose) (HPC) 94 % of control | [14] 102 % of control | dose: 200.0 mg/kg/injection, schedule: Q01DX001 (ip), vehicle: Klucel (hydroxypropylcellulose) (HPC) 102 % of control | [16] 89 % of control | dose: 400.0 mg/kg/injection, schedule: Q01DX001 (ip), vehicle: Klucel (hydroxypropylcellulose) (HPC) 91 % of control

O=S(=O)(Cc1ccccc1)C(Cl)(Cl)c1ccccc1
inactive: dose: 100.0 mg/kg/injection, schedule: Q01DX001 (ip), vehicle: saline 91 % of control | [14] 96 % of control | [15] 110 % of control | dose: 200.0 mg/kg/injection, schedule: Q01DX001 (ip), vehicle: saline 107 % of control | [16] 102 % of control | [17] 104 % of control | dose: 400.0 mg/kg/injection, schedule: Q01DX001 (ip), vehicle: saline 105 % of control | [18] 95 % of control | [19] 103 % of control

C[N+]1(C)CCC[N+](C)(C)CC1
inactive: dose: 55.0 mg/kg/injection, schedule: Q01DX Z (ip), vehicle: saline 95 % of control | dose: 83.0 mg/kg/injection, schedule: Q01DX Z (ip), vehicle: saline 98 % of control | dose: 125.0 mg/kg/injection, schedule: Q01DX Z (ip), vehicle: saline 103 % of control

COc1ccc(C(=O)C(Br)(Cc2ccccc2)OC)cc1 (stereo not given)
inactive: dose: 66.0 mg/kg/injection, schedule: Q04DX003 (ip), vehicle: saline 93 % of control | [1] 94 % of control | dose: 150.0 mg/kg/injection, schedule: Q04DX003 (ip), vehicle: saline 94 % of control

C=COC(=O)CCCCCCCCCCCCCCCCC
inactive: [15] 101 % of control | [17] 100 % of control | [19] 103 % of control

Cc1cccc([N+](=O)[O-])c1N
inactive: [10] 109 % of control | [7] 109 % of control | [8] 113 % of control | [9] 115 % of control

COC(=O)c1ccccc1NC(=O)Nc1cccc(Cl)c1C
inactive: [14] 86 % of control | [16] 95 % of control

Nc1nc2nc(N=Nc3ccc(S(=O)(=O)O)cc3)[nH]c2c(=O)[nH]1
inactive: [15] 93 % of control | [17] 93 % of control | [19] 93 % of control
